Experiments:
[1] = tested on: VERPE; assay: Pre-emergence herbicidal action against VERPE; assay type: in vivo, Veronica persica
Outline: (§1)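 Greenhouse pots of sandy loam held seeds covered with soil, onto which the compound was applied before emergence. An aqueous suspension or emulsion of WP or EC was used at 600 to 800 l/ha with 0.2% wetting agent. Percent damage was judged visually at 3 weeks.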

[2] = tested on: MATIN; assay: Pre-emergence herbicidal action against MATIN; assay type: in vivo, Matricaria inodora
Outline: as §1

[3] = tested on: AVEFA; assay: Post-emergence herbicidal action against AVEFA; assay type: in vivo, Avena fatua; conditions: visual assessment about 3 weeks after treatment, 100% = plants have died, 0% = like control plants
Outline: (§2)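 A WP or EC formulation diluted in water with 0.2% wetting agent was sprayed at 600 to 800 l/ha onto one-leaf-stage plants grown in sandy loam. About 3 weeks later, action was rated visually in percent, 100% being dead plants.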

[4] = tested on: SETVI; assay: Post-emergence herbicidal action against SETVI; assay type: in vivo, Setaria viridis
Outline: as §2

[5] = tested on: VIOTR; assay: Pre-emergence herbicidal action against VIOTR; assay type: in vivo, Viola tricolor
Outline: as §1

[6] = tested on: SETVI; assay: Pre-emergence herbicidal action against SETVI; assay type: in vivo, Setaria viridis
Outline: as §1

[7] = tested on: AMARE; assay: Post-emergence herbicidal action against AMARE; assay type: in vivo, Amaranthus retroflexus; conditions: 20 g/ha, visual assessment about 3 weeks after treatment, 100% = plants have died, 0% = like control plants
Outline: as §2

[8] = tested on: PHBPU; assay: Pre-emergence herbicidal action against PHBPU; assay type: in vivo, Pharbitis purpurea; conditions: dosage 80 g/ha
Outline: as §1

[9] = tested on: MATIN; assay: Post-emergence herbicidal action against MATIN; assay type: in vivo, Matricaria inodora; conditions: dosage 20 g/ha
Outline: as §2

[10] = tested on: POLCO; assay: Pre-emergence herbicidal action against POLCO; assay type: in vivo, Polygonum convolvulus; conditions: dosage 80 g/ha
Outline: as §1

[11] = tested on: ECHCG; assay: Post-emergence herbicidal action against ECHCG; assay type: in vivo, Echinochloa crus-galli
Outline: as §2

[12] = tested on: AVEFA; assay: Pre-emergence herbicidal action against AVEFA; assay type: in vivo, Avena fatua; conditions: 80 g/ha, pre-emergence
Outline: as §1

[13] = tested on: VERPE; assay: Post-emergence herbicidal action against VERPE; assay type: in vivo, Veronica persica; conditions: 20 g/ha
Outline: as §2

[14] = tested on: ABUTH; assay: Pre-emergence herbicidal action against ABUTH; assay type: in vivo, Abutilon theophrasti; conditions: for Pre-emergence action against ABUTH (herbicidal activity): 80 g/ha, scored visually after 3 weeks vs untreated controls (100% = plants have died, 0% = like control plants); for Pre-emergence action against ABUTH (herbicidal activity in percent): dosage 20 g/ha, scored visually after 3 weeks vs untreated controls, 100% = plants have died, 0% = like control plants
Outline: as §1

[15] = tested on: ALOMY; assay: Pre-emergence herbicidal action against ALOMY; assay type: in vivo, Alopecurus myosuroides; conditions: for Pre-emergence action against ALOMY (herbicidal activity): 80 g/ha, scored visually after 3 weeks vs untreated controls (100% = plants have died, 0% = like control plants)
Outline: as §1

[16] = tested on: VIOTR; assay: Post-emergence herbicidal action against VIOTR; assay type: in vivo, Viola tricolor
Outline: as §2

[17] = tested on: ECHCG; assay: Pre-emergence herbicidal action against ECHCG; assay type: in vivo, Echinochloa crus-galli
Outline: as §1

[18] = tested on: ABUTH; assay: Post-emergence herbicidal action against ABUTH; assay type: in vivo, Abutilon theophrasti; conditions: visual assessment about 3 weeks after treatment vs untreated controls
Outline: as §2

[19] = tested on: AMARE; assay: Pre-emergence herbicidal action against AMARE; assay type: in vivo, Amaranthus retroflexus
Outline: as §1

[20] = tested on: PHBPU; assay: Post-emergence herbicidal action against PHBPU; assay type: in vivo, Pharbitis purpurea
Outline: as §2

[21] = tested on: ALOMY; assay: Post-emergence herbicidal action against ALOMY; assay type: in vivo, Alopecurus myosuroides; conditions: dosage 20 g/ha, visual assessment about 3 weeks after treatment vs untreated controls
Outline: as §2

[22] = tested on: DIGSA; assay: Pre-emergence herbicidal action against DIGSA; assay type: in vivo, Digitaria sanguinalis
Outline: as §1

[23] = tested on: DIGSA; assay: Post-emergence herbicidal action against DIGSA; assay type: in vivo, Digitaria sanguinalis
Outline: as §2

[24] = 20 g/ha, scored visually after 3 weeks vs untreated controls, 100% = plants have died, 0% = like control plants
[25] = 80 g/ha, scored visually after 3 weeks vs untreated controls (100% = plants have died, 0% = like control plants)

SMILES | Pre-emergence action against VERPE in % ([1]; dosage 80 g/ha) [%] | Pre-emergence action against MATIN in % ([2]; dosage 20 g/ha) [%] | Pre-emergence action against MATIN in % ([2]; dosage 80 g/ha) [%] | Post-emergence action at 20 g/ha against AVEFA in % [3] [%] | Post-emergence action against SETVI in % ([4]; dosage 20 g/ha) [%] | Pre-emergence action against VIOTR in % ([5]; dosage 20 g/ha) [%] | Pre-emergence action against VIOTR in % ([5]; dosage 80 g/ha) [%] | Pre-emergence action against SETVI in % ([6]; dosage 20 g/ha) [%] | Pre-emergence action against SETVI in % ([6]; dosage 80 g/ha) [%] | Post-emergence action at 20 g/ha against AMARE in % [7] [%] | Pre-emergence action against PHBPU in % [8] [%] | Pre-emergence action against POLCO in % [10] [%] | Post-emergence action against ECHCG in % ([11]; dosage 5 g/ha) [%] | Post-emergence action against ECHCG in % ([11]; dosage 20 g/ha) [%] | Pre-emergence action against AVEFA in % [12] [%] | Post-emergence action against VERPE in % [13] [%] | Pre-emergence action against ABUTH (herbicidal activity) [14] [%] | Pre-emergence action against ABUTH (herbicidal activity in percent) [14] [%] | Pre-emergence action against ALOMY (herbicidal activity) [15] [%] | Pre-emergence action against ECHCG in % ([17]; 80 g/ha) [%] | also measured
CSc1c(C(=O)Nc2nnnn2C)ccc(C(F)(F)F)c1C(=O)NCC(F)F [Example 1-86] | 100 | 100 | 100 | 100 | 80 | 100 | 100 | 80 | 100 | 100 | 80 | 80 | 80 | 100 | 100 | 90 | 100 | 100 | 100 | 100 | Post-emergence action against MATIN in % [9]: 80%; Post-emergence action against VIOTR in % ([16]; 5 g/ha): 90%; Post-emergence action against VIOTR in % ([16]; 20 g/ha): 100%; Pre-emergence action against ECHCG in % ([17]; 20 g/ha): 90%; Post-emergence action against ABUTH in % ([18]; dosage 5 g/ha): 100%; Post-emergence action against ABUTH in % ([18]; dosage 20 g/ha): 100%; Pre-emergence action against AMARE in % [19, 24]: 100%; Pre-emergence action against AMARE in % [19, 25]: 100%; Post-emergence action against PHBPU in % ([20]; dosage 5 g/ha): 80%; Post-emergence action against PHBPU in % ([20]; dosage 20 g/ha): 90%; Post-emergence action against ALOMY in % [21]: 100%
CCn1nnnc1NC(=O)c1ccc(C(F)(F)F)c(C(=O)NCCOC)c1C [Example 2-34] | 90 | 90 | 100 | 80 | 90 | 100 | 100 | 100 | 100 | 100 | 80 | 90 | 90 | 100 | 90 | 80 | 100 | 80 | 90 | 90 | Pre-emergence action against VERPE in % ([1]; dosage 20 g/ha): 90%; Post-emergence action at 5 g/ha against AVEFA in % ([3]; 5 g/ha): 80%; Post-emergence action against SETVI in % ([4]; dosage 5 g/ha): 80%; Pre-emergence action against DIGSA in % ([22]; dosage 20 g/ha): 100%; Pre-emergence action against DIGSA in % ([22]; dosage 80 g/ha): 100%; Post-emergence action against DIGSA in % ([23]; 5 g/ha): 80%; Post-emergence action against DIGSA ([23]; 20 g/ha): 100%; Pre-emergence action against ALOMY ([15]; 20 g/ha, scored visually after 3 weeks, 100% = plants have died, 0% = like control plants): 80%; Post-emergence action against ABUTH in % ([18]; dosage 5 g/ha): 90%; Post-emergence action against ABUTH in % ([18]; dosage 20 g/ha): 90%; Pre-emergence action against AMARE in % [19, 24]: 90%; Pre-emergence action against AMARE in % [19, 25]: 100%; Post-emergence action against PHBPU in % ([20]; dosage 5 g/ha): 90%; Post-emergence action against PHBPU in % ([20]; dosage 20 g/ha): 100%; Post-emergence action against ALOMY in % [21]: 100%

— US12655116B2, “Substituted isophthalic acid diamides” (Bayer Aktiengesellschaft, priority 2020, dated 2026)
